Experimental findings from patent US10227357B2, “Compounds and methods for kinase modulation, and indications therefor” (Plexxikon Inc., priority 2012, dated 2019) are described below.

For one assay, the target named is T1, c-kit kinase (Homo sapiens, UniProt P10721).
T1 construct: The c-kit (or kinase domain thereof) is an active kinase in AlphaScreen; poly-Histidine tag (in-house protein only) (cleaved yes); host or cells: E. coli BL21(DE3)RIL, co-expressed with PTP1B
Nature of the assay: c-Kit biochemical assay, AlphaScreen, 10 μM ATP. As to conditions: c-kit biochemical inhibitory activity; read-out: Biochemical activity (IC50 μM) Kit. The method, boiled down:
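His-tagged c-Kit expressed in E. coli with co-expressed PTP1B (dephosphorylated), tag removed; 0.1 ng per reaction with biotinylated-peptide substrate in 50 mM HEPES pH 7.2, 5 mM MgCl2, 5 mM MnCl2, 5% DMSO, 10 μM ATP, 1 h at room temperature. Phosphorylation detected by AlphaScreen (streptavidin donor, PY20 acceptor beads); IC50 from 8-point 1:3 dilution series.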
Background: Alpha assays give light when donor and acceptor beads are brought close together.

A further assay concerns the target T2, c-kit mutant D816V (Homo sapiens, UniProt P10721, D816V/DEL694-753).
T2 construct: residues 551-934, kinase insertion domain residues 694-753 deleted; 6x-histidine (N); made in house; host or cells: E. coli Arctic Express (DE3) RIL (Stratagene)
Nature of the assay: c-Kit mutant D816V biochemical assay, AlphaScreen. As to conditions: c-kit D816V biochemical inhibitory activity; read-out: Biochemical activity (IC50 μM) Kit D816V. The procedure, abridged: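 Purified His-tagged c-Kit D816V (E. coli-expressed) assayed in 25 mM HEPES pH 7.2 with Mg/Mn, 5% DMSO and 10 μM ATP, 30 min at room temperature, 8-point 1:3 dilutions. Phosphorylation detected by AlphaScreen with streptavidin donor and PY20 acceptor beads; IC50 from signal versus concentration.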

Structures are written as SMILES.

T2 sequence (P10721 with tags, fused parts or gaps DEL694-753/D816V): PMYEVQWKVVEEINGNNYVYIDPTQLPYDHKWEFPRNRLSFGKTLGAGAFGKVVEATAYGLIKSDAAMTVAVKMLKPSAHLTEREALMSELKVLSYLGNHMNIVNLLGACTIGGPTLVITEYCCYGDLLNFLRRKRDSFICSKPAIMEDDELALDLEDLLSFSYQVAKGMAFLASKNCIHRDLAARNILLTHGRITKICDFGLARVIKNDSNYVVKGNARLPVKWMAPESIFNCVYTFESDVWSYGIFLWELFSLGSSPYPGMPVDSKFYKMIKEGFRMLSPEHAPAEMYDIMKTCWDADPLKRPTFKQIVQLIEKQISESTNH
T1 sequence (P10721 26-976): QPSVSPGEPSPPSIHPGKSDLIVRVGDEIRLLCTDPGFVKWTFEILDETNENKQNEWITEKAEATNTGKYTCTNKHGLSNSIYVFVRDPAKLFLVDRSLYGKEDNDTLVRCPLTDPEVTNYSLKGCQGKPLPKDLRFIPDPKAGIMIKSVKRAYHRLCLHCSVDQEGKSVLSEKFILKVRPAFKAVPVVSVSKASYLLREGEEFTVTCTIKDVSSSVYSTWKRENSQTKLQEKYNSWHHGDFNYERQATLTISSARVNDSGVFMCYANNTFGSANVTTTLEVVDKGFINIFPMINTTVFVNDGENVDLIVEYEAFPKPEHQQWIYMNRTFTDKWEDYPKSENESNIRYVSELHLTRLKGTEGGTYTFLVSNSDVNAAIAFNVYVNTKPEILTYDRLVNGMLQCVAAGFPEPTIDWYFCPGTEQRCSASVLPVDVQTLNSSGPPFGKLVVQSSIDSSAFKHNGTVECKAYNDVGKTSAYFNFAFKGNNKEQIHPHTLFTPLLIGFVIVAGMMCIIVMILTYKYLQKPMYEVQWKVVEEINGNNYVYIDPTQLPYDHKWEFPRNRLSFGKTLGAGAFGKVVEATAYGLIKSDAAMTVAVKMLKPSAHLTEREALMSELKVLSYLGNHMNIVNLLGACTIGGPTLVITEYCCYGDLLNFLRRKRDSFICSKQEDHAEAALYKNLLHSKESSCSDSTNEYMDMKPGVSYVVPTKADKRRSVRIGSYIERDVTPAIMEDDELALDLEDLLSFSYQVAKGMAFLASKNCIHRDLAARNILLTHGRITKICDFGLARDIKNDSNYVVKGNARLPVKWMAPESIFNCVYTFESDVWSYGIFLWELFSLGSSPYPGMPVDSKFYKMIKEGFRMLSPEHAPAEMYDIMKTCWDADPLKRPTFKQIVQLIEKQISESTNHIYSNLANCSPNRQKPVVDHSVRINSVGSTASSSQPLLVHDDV

As a reminder, the IC50 is the concentration needed to halve the response being measured. With `C[C@H](NC(=O)N1CCN(c2ncnc3[nH]c(-c4ccncc4)cc23)C[C@H]1C)c1ccc(F)cc1` [P-0058, (2R)-N-[(1S)-1-(4-fluorophenyl)ethyl]-2-methyl-4-[6-(4-pyridyl)-7H-pyrrolo[2,3-d]pyrimidin-4-yl]piperazine-1-carboxamide], the IC50 at c-kit kinase fell in the range of 1 to 10 µM; at c-kit mutant D816V, 0.0001 to 1 µM.

For `C[C@H](NC(=O)N1CCN(c2ncnc3[nH]c(-c4ccncc4)cc23)C[C@H]1C)c1ccc(Cl)cc1` [P-0059, (2R)-N-[(1S)-1-(4-chlorophenyl)ethyl]-2-methyl-4-[6-(4-pyridyl)-7H-pyrrolo[2,3-d]pyrimidin-4-yl]piperazine-1-carboxamide], the IC50 at c-kit kinase and at c-kit mutant D816V was 0.0001 to 1 µM throughout.

Consider `COc1cccc([C@H](C)NC(=O)N2CCN(c3ncnc4[nH]c(-c5ccncc5)cc34)C[C@H]2C)c1` [P-0060, (2R)-N-[(1S)-1-(3-methoxyphenyl)ethyl]-2-methyl-4-[6-(4-pyridyl)-7H-pyrrolo[2,3-d]pyrimidin-4-yl]piperazine-1-carboxamide], for which the IC50 on c-kit kinase and at c-kit mutant D816V was 0.0001 to 1 µM each time.

As to `C[C@@H]1CN(c2ncnc3[nH]c(-c4ccncc4)cc23)CCN1C(=O)NCc1ccc(F)cc1` [P-0061, (2R)-N-[(4-fluorophenyl)methyl]-2-methyl-4-[6-(4-pyridyl)-7H-pyrrolo[2,3-d]pyrimidin-4-yl]piperazine-1-carboxamide], the values for the IC50 at c-kit kinase and on c-kit mutant D816V were 1 to 10 µM and 0.0001 to 1 µM, respectively.

`C[C@@H]1CN(c2ncnc3[nH]c(-c4ccncc4)cc23)CCN1C(=O)Nc1ccc(F)c(Cl)c1` [P-0062, (2R)-N-(3-chloro-4-fluoro-phenyl)-2-methyl-4-[6-(4-pyridyl)-7H-pyrrolo[2,3-d]pyrimidin-4-yl]piperazine-1-carboxamide]: the IC50 on c-kit kinase fell in the range of 1 to 10 µM; on c-kit mutant D816V it was 0.0001 to 1 µM.

For `C[C@@H]1CN(c2ncnc3[nH]c(-c4ccncc4)cc23)CCN1C(=O)Nc1ccc(OC(F)(F)F)cc1` [P-0063, (2R)-2-methyl-4-[6-(4-pyridyl)-7H-pyrrolo[2,3-d]pyrimidin-4-yl]-N-[4-(trifluoromethoxy)phenyl]piperazine-1-carboxamide], the IC50 on c-kit kinase and at c-kit mutant D816V was 0.0001 to 1 µM throughout.

With `C[C@@H]1CN(c2ncnc3[nH]c(-c4ccncc4)cc23)CCN1C(=O)NCc1ccc(Cl)cc1` [P-0064, (2R)-N-[(4-chlorophenyl)methyl]-2-methyl-4-[6-(4-pyridyl)-7H-pyrrolo[2,3-d]pyrimidin-4-yl]piperazine-1-carboxamide], the IC50 at c-kit kinase and on c-kit mutant D816V was 0.0001 to 1 µM each time.

As to `C[C@@H]1CN(c2ncnc3[nH]c(-c4ccncc4)cc23)CCN1C(=O)Nc1ccc(Cl)cc1` [P-0065, (2R)-N-(4-chlorophenyl)-2-methyl-4-[6-(4-pyridyl)-7H-pyrrolo[2,3-d]pyrimidin-4-yl]piperazine-1-carboxamide], the IC50 on c-kit kinase and at c-kit mutant D816V was 0.0001 to 1 µM in each case.

Regarding `C[C@@H]1CN(c2ncnc3[nH]c(-c4ccncc4)cc23)CCN1C(=O)Nc1ccc(N(C)C)cc1` [P-0066, (2R)-N-(4-dimethylaminophenyl)-2-methyl-4-[6-(4-pyridyl)-7H-pyrrolo[2,3-d]pyrimidin-4-yl]piperazine-1-carboxamide], the IC50 was 1 to 10 µM on c-kit kinase and 0.0001 to 1 µM at c-kit mutant D816V.

As for `O=C(Nc1ccc(OC(F)(F)F)cc1)N1CCN(c2ncnc3[nH]c(-c4ccccc4F)cc23)CC1` [P-0067, 4-[6-(2-fluorophenyl)-7H-pyrrolo[2,3-d]pyrimidin-4-yl]-N-[4-(trifluoromethoxy)phenyl]piperazine-1-carboxamide], the IC50 fell in the range of 0.0001 to 1 µM at c-kit kinase and 1 to 10 µM at c-kit mutant D816V.

Take `CC1CN(c2ncnc3[nH]c(-c4ccncc4)cc23)CCN1C(=O)Nc1ccccc1` (stereo not shown) [P-0068, 2-methyl-N-phenyl-4-[6-(4-pyridyl)-7H-pyrrolo[2,3-d]pyrimidin-4-yl]piperazine-1-carboxamide]: the IC50 at c-kit kinase and at c-kit mutant D816V was 1 to 10 µM each time.
